Among the test systems are M19-MEL; XF498; HOP-18; KM-20L2; LXFL 529; Hs-578T; DMS-114; DMS-273; RXF 631.
What all share (experiment): growth of human tumour cells (NCI), 48 h

SMILES strings stand for the structures.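 Step 1: Grow cells in 96-well plates. Step 2: Expose to compound for 48 hours at 5 concentrations. Step 3: Interpolate endpoints linearly; if unreached, use highest concentration. GI50 marks 50% less growth.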 Calls of active or inactive are those of the source. Cut-off read from the data, not from the text of the source: active = GI50 up to about 1.1 µM and inactive = higher. Where a SMILES comes first, the peptide text is derived from it. The star is where a group is joined. Boc = CC(C)(C)OC(=O)*; OSu = O=C1CCC(=O)N1O* Where only a bound is given, the exact number is not on record here.

For the compound `CCCCCCCCCCCC(=O)OC[C@@H](C[As](=O)(O)O)OC(=O)CCCCCCCCCCC`, the GI50 in the assay on M19-MEL was 6.05 µM (inactive); with XF498 it was 14.2 µM (inactive); in the assay on HOP-18, 14.5 µM (inactive); in the assay on KM-20L2 it was 13.4 µM (inactive); in the assay on LXFL 529, 5.45 µM (inactive); in the assay with Hs-578T it was 3.93 µM (inactive). Besides, the GI50 in the assay with DMS-114 was 2.12 µM (inactive); with DMS-273, 3.26 µM (inactive).
For `[N-]=[N+]=Nc1ncnc2c1sc(=S)n2-c1ccccc1`, the GI50 in the assay on M19-MEL, with XF498, in the assay with HOP-18, in the assay on KM-20L2, with LXFL 529 and with DMS-114 was > 100 µM (inactive) in each case. Moreover, the GI50 in the assay with DMS-273 is > 100 µM (inactive).
Take `COC1(C)CNCC(C)(C)NC(=O)C(C)(OC)CNCC(C)(C)NC1=O` (stereo unspecified): the GI50 with RXF 631, in the assay on M19-MEL, in the assay with HOP-18, in the assay with KM-20L2, in the assay on LXFL 529 and in the assay on DMS-114 was > 100 µM (inactive) each time. The GI50 with DMS-273 was > 100 µM (inactive).
Regarding `C=CN1C(=O)[C@H](Oc2ccccc2)[C@@H]1c1ccccc1`, the GI50 in the assay with M19-MEL is 43.4 µM (inactive); in the assay with XF498, 26.1 µM (inactive); in the assay with HOP-18, 37.8 µM (inactive); with KM-20L2 it was 31.7 µM (inactive); with LXFL 529 it was 31.4 µM (inactive); in the assay on DMS-114, 27.6 µM (inactive).
On to `CC1=NN(C(=O)c2ccc(Cl)cc2)C(=O)/C1=C/c1c(O)cc(O)c2ccccc12`, for which the GI50 in the assay with M19-MEL, in the assay with XF498, with KM-20L2, in the assay on LXFL 529 and with DMS-114 was > 100 µM (inactive) each time.
Turning to `O=C(NCCC1CN(C(=O)OCc2ccccc2)c2ccccc21)OCc1ccccc1` (stereo unspecified), in the assay on Hs-578T, the GI50 was > 100 µM (inactive).
For `CCN(CC)c1ccc(/N=N/c2ccc(-c3nc4cccnc4s3)cc2)cc1`, the GI50 is 7.69 µM (inactive) in the assay on M19-MEL; 18.2 µM (inactive) in the assay with XF498; > 100 µM (inactive) in the assay on KM-20L2; > 100 µM (inactive) in the assay on LXFL 529; 46.5 µM (inactive) in the assay on DMS-114.
For the compound `CC(=O)Nc1ccc(-c2nnc(SCC(=O)Nc3ccccc3C)o2)cc1`, the GI50 in the assay on M19-MEL is 70.1 µM (inactive); with HOP-18 it was > 100 µM (inactive); in the assay on KM-20L2 it was 69.3 µM (inactive); with LXFL 529, 33.3 µM (inactive); in the assay with DMS-114 it was > 100 µM (inactive); with DMS-273, 35.4 µM (inactive).
Turning to `Nc1ccc2nc3n(c(=O)c2c1)CCCCC3`, in the assay on Hs-578T, the GI50 is > 100 µM (inactive).
Turning to `CN(C=O)/C=C/c1cc(O)ccc1O`, the GI50 with RXF 631 was 47.5 µM (inactive); in the assay on M19-MEL, 20.8 µM (inactive); in the assay with HOP-18, 14.6 µM (inactive); in the assay with KM-20L2, > 46 µM (inactive); in the assay on LXFL 529 it was 18.8 µM (inactive); with DMS-114 it was 45.9 µM (inactive). Also, the GI50 in the assay on DMS-273 was > 39.4 µM (inactive).
As for `Nc1ncnc2c1ncn2C1OC(CSCc2ccc(Cl)cc2)C(O)C1O` (stereo unspecified), the GI50 in the assay on M19-MEL was 33.7 µM (inactive); with XF498 it was 22.8 µM (inactive); with HOP-18, 42 µM (inactive); with KM-20L2, 9.55 µM (inactive); with LXFL 529, 17.2 µM (inactive); in the assay on DMS-114, 21.9 µM (inactive). The GI50 with DMS-273 is 30.1 µM (inactive).
Take `COC(=O)[C@H]1C=C[C@@H](C)n2c(=O)c3ccccc3c(=O)n21`: the GI50 with M19-MEL, in the assay with XF498, with KM-20L2, in the assay on LXFL 529, in the assay with DMS-114 and in the assay with DMS-273 was > 100 µM (inactive) throughout.
As for `Cn1c(=O)c(C(=O)NC(=O)NCCCCCOC(=O)CCCCCCCCCCC(=O)OCCCCCNC(=O)NC(=O)c2cn(Cc3ccccc3)c(=O)n(C)c2=O)cn(Cc2ccccc2)c1=O`, the GI50 in the assay on M19-MEL, with XF498, with HOP-18, in the assay with KM-20L2, in the assay on LXFL 529 and in the assay on DMS-114 was > 100 µM (inactive) each time. Also, the GI50 in the assay on DMS-273 is > 100 µM (inactive).
For the compound `COC(CC1(OC)OC(=O)C=C1N)OC` (stereo unspecified), the GI50 in the assay with M19-MEL, in the assay with HOP-18, with LXFL 529, in the assay on DMS-114 and with DMS-273 was > 100 µM (inactive) in each case.
Take `O=C1c2ccccc2C(=O)N1C/C=N/NS(=O)(=O)c1cccc([N+](=O)[O-])c1`: the GI50 in the assay on M19-MEL, in the assay with XF498, in the assay with KM-20L2, in the assay with LXFL 529, in the assay with DMS-114 and with DMS-273 was > 100 µM (inactive) in each case.
`CCC(=O)c1c(NOC2OC(COC(C)=O)C(OC(C)=O)C(OC(C)=O)C2OC(C)=O)nc(OC)n(C)c1=O` (stereo unspecified): the GI50 with RXF 631, in the assay with M19-MEL, in the assay on XF498, with KM-20L2, with LXFL 529 and in the assay on DMS-114 was > 100 µM (inactive) in each case. Moreover, the GI50 in the assay with DMS-273 was > 100 µM (inactive).
In the case of `C=C1C(=O)OC2/C=C(/C)C3CC(O)C(C)(CC(OC(=O)/C(C)=C/C)C12)O3` (stereo unspecified), the GI50 is 2.96 µM (inactive) with M19-MEL; 3.56 µM (inactive) in the assay with XF498; 17.4 µM (inactive) with HOP-18; 2.32 µM (inactive) with KM-20L2; 2.08 µM (inactive) in the assay with LXFL 529; 7.01 µM (inactive) in the assay on DMS-114. The GI50 with DMS-273 was 2.54 µM (inactive).
As to `O=C(Nc1nc2ccccc2n1Cc1ccccc1)NC12CC3CC(CC(C3)C1)C2`, the GI50 was 61.4 µM (inactive) with M19-MEL; 17.8 µM (inactive) in the assay with XF498; 44.8 µM (inactive) in the assay with HOP-18; > 100 µM (inactive) in the assay with KM-20L2; 67.8 µM (inactive) with LXFL 529; 57.3 µM (inactive) with DMS-114. Also, the GI50 in the assay with DMS-273 is 16.9 µM (inactive).
In the case of `CCOC(=O)NC(=O)c1cn(CCCOC(=O)NCCCCCCNC(=O)OCCCn2cc(C(=O)NC(=O)OCC)c(=O)[nH]c2=O)c(=O)[nH]c1=O`, the GI50 in the assay with M19-MEL is 31.9 µM (inactive); in the assay on HOP-18 it was 82.8 µM (inactive); with KM-20L2 it was 50 µM (inactive); in the assay on LXFL 529 it was 57.4 µM (inactive); in the assay with DMS-114, 15.3 µM (inactive); in the assay with DMS-273, 30.7 µM (inactive).
In the case of `CCOC(=O)C1=C(c2ccccc2)NC(c2ccccc2)=C(C(=O)OCC)c2c1c(=O)cc[nH]c2=O`, the GI50 in the assay with RXF 631 was 34.7 µM (inactive); in the assay on M19-MEL, > 100 µM (inactive); in the assay with XF498, > 100 µM (inactive); with KM-20L2 it was > 100 µM (inactive); with LXFL 529, > 100 µM (inactive); with DMS-273, > 100 µM (inactive).
Take `O=c1cc(-c2cccnc2)[nH]c2cc3c(cc12)OCO3`: the GI50 was 3.59 µM (inactive) in the assay with M19-MEL; 7.36 µM (inactive) in the assay with XF498; 1.17 µM (inactive) with HOP-18; 2.3 µM (inactive) with LXFL 529; 11.3 µM (inactive) in the assay on Hs-578T; 7.01 µM (inactive) with DMS-114. The GI50 in the assay on DMS-273 was 4.13 µM (inactive).
As to `CC(=O)c1ccc(NC(=O)C(=O)C(C(=O)/C=C/c2ccccc2)C2OC(=O)c3ccccc32)cc1` (stereo unspecified), the GI50 with RXF 631 is > 100 µM (inactive); in the assay with M19-MEL it was > 100 µM (inactive); with XF498, > 100 µM (inactive); in the assay with HOP-18, > 100 µM (inactive); with KM-20L2, > 100 µM (inactive); in the assay on LXFL 529 it was 96.6 µM (inactive). Also, the GI50 in the assay on DMS-273 was > 100 µM (inactive).
Turning to `O=c1c2cc3c(cc2[nH]c2ncccc12)OCO3`, the GI50 in the assay on Hs-578T is > 10 µM (inactive).
Regarding `N#C/C(=C/c1cccc2ccccc12)C(=O)c1ccccc1`, the GI50 in the assay with M19-MEL is 28.4 µM (inactive); in the assay with XF498, 20.1 µM (inactive); with KM-20L2, 19 µM (inactive); in the assay on DMS-114, 51.6 µM (inactive).
`Cc1cccc(NC(=S)N/N=C(/c2ccccc2)c2ccccn2)c1`: the GI50 in the assay on Hs-578T was 9.02 µM (inactive).
For the compound `O=C(c1ccccc1)N1C2C3CC(OCc4ccccc4)(OCc4ccccc4)C(O3)C21` (stereo unspecified), the GI50 in the assay with RXF 631, with M19-MEL, in the assay with XF498, in the assay on KM-20L2, with LXFL 529 and with DMS-114 was > 100 µM (inactive) in each case.
Turning to `CCCCCCC(O)C/C=C/CCCCCC/C(C(=O)OC)=C(/O)C(=O)OCC` (stereo unspecified), the GI50 in the assay on RXF 631, in the assay with M19-MEL, with XF498, in the assay on HOP-18, in the assay on LXFL 529 and in the assay on DMS-114 was > 100 µM (inactive) each time. Moreover, the GI50 with DMS-273 was > 100 µM (inactive).
Consider `CC(=O)OC12c3ccccc3-c3ccccc3C1C1C(=O)N(C)C(=O)C12Cl` (stereo unspecified), for which the GI50 with Hs-578T was > 10 µM (inactive).
Take `COc1cc2c(c(OC)c1OC)-c1ccc(SC)c(=O)cc1[C@@H](NC(=O)c1cccc([N+](=O)[O-])c1)CC2`: the GI50 in the assay with RXF 631 was 0.0164 µM (active); in the assay on M19-MEL, 0.0296 µM (active); with XF498, 0.0205 µM (active); in the assay with KM-20L2, 0.0172 µM (active); in the assay with LXFL 529 it was 0.0239 µM (active); in the assay on DMS-273, < 0.01 µM (active).
Consider `N#CC(C#N)=C(N)/C(C#N)=C/c1cc(O)c(O)c(Br)c1`, for which the GI50 with M19-MEL was > 100 µM (inactive); in the assay on XF498, 35.7 µM (inactive); with KM-20L2, 31.7 µM (inactive); in the assay with LXFL 529 it was 44.9 µM (inactive); with Hs-578T, 38.9 µM (inactive); in the assay on DMS-114, 29.1 µM (inactive). Besides, the GI50 in the assay with DMS-273 was 59.2 µM (inactive).
On to `CC(NC(=O)C(NC(=O)OC(C)(C)C)C(C)C)C(=O)NCC(=O)ON1C(=O)CCC1=O` (stereo not drawn) (Boc-Val-Ala-Gly-OSu; configuration not given here), for which, in the assay on Hs-578T, the GI50 was > 10 µM (inactive).
`COc1c(O)cc2oc(-c3ccc(O)cc3)cc(=O)c2c1O` [HISPIDULIN]: the GI50 in the assay on Hs-578T is 18.9 µM (inactive).
